Experimental data taken from article PMC11909324 (Journal of the Science of Food and Agriculture, 2024).

Key:
[1] = cited from earlier work
[2] = target: T1, xanthine oxidase (XO) (Bos taurus, UniProt P80457); experiment: XO assay with 6MP as substrate (6-thiouric acid formation, HPLC-UV); assay type: biochemical, bovine; settings: inhibitor 20 μmol L^−1; 6MP 5 μmol L^−1;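 note: incubation in 0.05 mol L^−1 sodium phosphate buffer, with 6MP and 6-thiouric acid quantified by HPLC-UV and conversion taken as the product share of substrate plus product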
T1 construct: XO (from bovine milk); purchased Merck (Darmstadt, Germany); host or cells: bovine milk (natural source)

[3] = target: T1, xanthine oxidase (XO); experiment: XO assay with xanthine as substrate (uric acid formation, HPLC-UV); assay type: biochemical, bovine; settings: inhibitor 20 μmol L^−1; xanthine 5 μmol L^−1; read-out: decrease in uric acid production (inhibition of XO-catalyzed xanthine oxidation);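 note: incubations in 0.05 mol L^−1 sodium phosphate buffer, with uric acid and remaining xanthine both quantified by HPLC-UV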
[4] = humans; peroral high doses (0.5–5.0 g) of RES; cited from earlier work

T1 sequence (P80457 whole entry): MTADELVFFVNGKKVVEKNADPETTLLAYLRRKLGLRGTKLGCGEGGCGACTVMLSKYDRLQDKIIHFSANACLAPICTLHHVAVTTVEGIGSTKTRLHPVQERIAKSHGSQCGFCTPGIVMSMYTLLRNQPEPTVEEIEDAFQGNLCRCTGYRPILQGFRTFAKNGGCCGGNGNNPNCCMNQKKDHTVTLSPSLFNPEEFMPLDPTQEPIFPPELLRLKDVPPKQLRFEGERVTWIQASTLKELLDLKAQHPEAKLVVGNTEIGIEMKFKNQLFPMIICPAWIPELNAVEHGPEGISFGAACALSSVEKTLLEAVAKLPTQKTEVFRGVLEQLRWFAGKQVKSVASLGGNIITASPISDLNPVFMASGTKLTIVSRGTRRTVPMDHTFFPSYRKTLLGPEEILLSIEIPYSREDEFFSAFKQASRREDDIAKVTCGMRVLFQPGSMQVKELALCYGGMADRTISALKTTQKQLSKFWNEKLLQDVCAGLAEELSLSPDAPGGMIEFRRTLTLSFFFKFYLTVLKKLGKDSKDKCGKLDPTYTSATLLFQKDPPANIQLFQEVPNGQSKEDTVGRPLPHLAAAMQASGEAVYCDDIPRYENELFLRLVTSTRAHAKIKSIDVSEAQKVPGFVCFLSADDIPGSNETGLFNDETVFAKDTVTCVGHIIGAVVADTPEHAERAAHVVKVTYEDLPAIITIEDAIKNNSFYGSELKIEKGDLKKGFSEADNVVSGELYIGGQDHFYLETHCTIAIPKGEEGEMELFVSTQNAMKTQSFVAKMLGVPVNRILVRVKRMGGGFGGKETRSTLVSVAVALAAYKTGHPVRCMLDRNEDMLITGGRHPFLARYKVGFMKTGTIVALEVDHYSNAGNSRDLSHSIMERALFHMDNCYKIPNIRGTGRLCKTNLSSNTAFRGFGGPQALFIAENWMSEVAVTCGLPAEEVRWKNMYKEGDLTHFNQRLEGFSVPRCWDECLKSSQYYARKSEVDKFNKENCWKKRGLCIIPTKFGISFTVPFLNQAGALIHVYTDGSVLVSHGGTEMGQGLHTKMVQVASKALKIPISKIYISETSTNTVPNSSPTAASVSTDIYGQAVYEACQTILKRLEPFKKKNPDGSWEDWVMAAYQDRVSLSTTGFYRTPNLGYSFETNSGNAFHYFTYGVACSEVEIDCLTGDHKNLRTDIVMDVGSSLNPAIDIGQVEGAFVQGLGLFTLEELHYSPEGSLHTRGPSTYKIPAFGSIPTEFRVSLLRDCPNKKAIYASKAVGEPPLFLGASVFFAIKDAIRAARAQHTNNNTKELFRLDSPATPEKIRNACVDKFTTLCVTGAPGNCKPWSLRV

decrease in 6-thiouric acid formation (inhibition of XO-catalyzed 6MP oxidation) [2]	inhibition at 20 µM [3]	SMILES	oral bioavailability [1]	peak plasma concentrations [4]
weak to moderate inhibitors	–	Oc1ccc(/C=C/c2cc(O)cc(O)c2)cc1 [RES, resveratrol]	less than 1%	–
weak to moderate inhibitors	27%	O=S(=O)(O)Oc1cc(O)cc(C=Cc2ccc(O)cc2)c1 [R3S, resveratrol‐3‐sulfate]	–	10 to 20 µmol/L
